# Where “and” joins values, the source holds several entries; their conditions need not be identical. Identical values can stand only once. Inconclusive results and toxic doses are left out.
# Test system: CD2F1 mice, L1210 leukemia ip, survival T/C
# Experiment: NCI In Vivo Anticancer Drug Screen. Data for tumor model L1210 Leukemia (intraperitoneal) in CD2F1 (CDF1) mice
# Details: higher = longer survival
# Outline: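 Tumor-bearing mice (transplanted tumor) were split into treated and vehicle control groups, and the measured endpoint of each treated group was divided by that of its vehicle controls.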
# [1] = endpoint: mean survival time, dose: 12.5 mg/kg/injection, schedule: Q01DX005 (ip), vehicle: distilled water + Tween-80
# [2] = endpoint: mean survival time, dose: 25.0 mg/kg/injection, schedule: Q01DX005 (ip), vehicle: distilled water + Tween-80
# [3] = endpoint: mean survival time, dose: 50.0 mg/kg/injection, schedule: Q01DX005 (ip), vehicle: distilled water + Tween-80
# [4] = endpoint: mean survival time, dose: 100.0 mg/kg/injection, schedule: Q01DX005 (ip), vehicle: distilled water + Tween-80
# [5] = endpoint: mean survival time, dose: 200.0 mg/kg/injection, schedule: Q01DX005 (ip), vehicle: distilled water + Tween-80
# [6] = endpoint: mean survival time, dose: 100.0 mg/kg/injection, schedule: Q04DX003 (ip), vehicle: saline with Tween-80
# [7] = endpoint: mean survival time, dose: 200.0 mg/kg/injection, schedule: Q04DX003 (ip), vehicle: saline with Tween-80
# [8] = endpoint: mean survival time, dose: 400.0 mg/kg/injection, schedule: Q04DX003 (ip), vehicle: saline with Tween-80
# [9] = endpoint: mean survival time, dose: 100.0 mg/kg/injection, schedule: Q01DX009 (ip), vehicle: saline with Tween-80
# [10] = endpoint: mean survival time, dose: 200.0 mg/kg/injection, schedule: Q01DX009 (ip), vehicle: saline with Tween-80
# [11] = endpoint: mean survival time, dose: 400.0 mg/kg/injection, schedule: Q01DX009 (ip), vehicle: saline with Tween-80
# [12] = endpoint: mean survival time, dose: 100.0 mg/kg/injection, schedule: Q04DX002 (ip), vehicle: saline with Tween-80
# [13] = endpoint: mean survival time, dose: 200.0 mg/kg/injection, schedule: Q04DX002 (ip), vehicle: saline with Tween-80
# [14] = endpoint: mean survival time, dose: 100.0 mg/kg/injection, schedule: Q01DX001 (ip), vehicle: saline
# [15] = endpoint: mean survival time, dose: 200.0 mg/kg/injection, schedule: Q01DX001 (ip), vehicle: saline
# [16] = endpoint: mean survival time, dose: 50.0 mg/kg/injection, schedule: Q01DX009 (ip), vehicle: saline
# [17] = endpoint: mean survival time, dose: 100.0 mg/kg/injection, schedule: Q01DX009 (ip), vehicle: saline
# [18] = endpoint: mean survival time, dose: 100.0 mg/kg/injection, schedule: Q04DX003 (ip), vehicle: saline
# [19] = endpoint: mean survival time, dose: 200.0 mg/kg/injection, schedule: Q04DX003 (ip), vehicle: saline
# [20] = endpoint: mean survival time, dose: 400.0 mg/kg/injection, schedule: Q04DX003 (ip), vehicle: saline
# [21] = endpoint: mean survival time, dose: 25.0 mg/kg/injection, schedule: Q01DX009 (ip), vehicle: saline with Tween-80
compound,measurement,setting,value
O=C(OCC1OC(n2nc(SCc3ccccc3)c(=S)[nH]c2=O)C(OC(=O)c2ccccc2)C1OC(=O)c1ccccc1)c1ccccc1 (stereo unspecified),T/C,[1],101 % of control
same,T/C,[2],95 % of control
same,T/C,[3],102 % of control
same,T/C,[4],93 % of control
same,T/C,[5],95 % of control
CCCCOc1cc([N+](=O)[O-])ccc1CO,T/C,[6],94 % of control
same,T/C,[7],92 % of control
same,T/C,[8],87 % of control
CCOC(=O)c1cc(CO)nc2c(Cl)cc(Cl)cc12,T/C,[9],91 % of control
same,T/C,[6],93 % of control
same,T/C,[10],90 % of control
same,T/C,[7],90 % of control
same,T/C,[11],90 % of control
same,T/C,[8],93 % of control
O=c1[nH]c(=S)c(SCc2ccccc2)nn1C1OC(CO)C(O)C1O (stereo unspecified),T/C,[1],95 % of control
same,T/C,[2],97 % of control
same,T/C,[3],100 % of control
same,T/C,[4],95 % of control
same,T/C,[5],94 % of control
COc1cc(CC#N)ccc1C,T/C,"endpoint: mean survival time, dose: 12.5 mg/kg/injection, schedule: Q04DX003 (ip), vehicle: acetone",97 % of control
same,T/C,"endpoint: mean survival time, dose: 25.0 mg/kg/injection, schedule: Q04DX003 (ip), vehicle: acetone",101 % of control
same,T/C,"endpoint: mean survival time, dose: 50.0 mg/kg/injection, schedule: Q04DX003 (ip), vehicle: acetone",102 % of control
C#CCOCCC(=O)O,T/C,"endpoint: mean survival time, dose: 50.0 mg/kg/injection, schedule: Q01DX009 (ip), vehicle: acetone",102 % of control
same,T/C,"endpoint: mean survival time, dose: 100.0 mg/kg/injection, schedule: Q01DX009 (ip), vehicle: acetone",100 % of control
same,T/C,"endpoint: mean survival time, dose: 200.0 mg/kg/injection, schedule: Q01DX009 (ip), vehicle: acetone",97 % of control
Cc1cc(=O)[nH]c(=S)[nH]1,T/C,"endpoint: mean survival time, dose: 100.0 mg/kg/injection, schedule: Q01DX001 (ip), vehicle: saline with Tween-80",98 % of control
same,T/C,[12],97 % of control
same,T/C,"endpoint: mean survival time, dose: 200.0 mg/kg/injection, schedule: Q01DX001 (ip), vehicle: saline with Tween-80",95 % of control
same,T/C,[13],97 % of control
same,T/C,"endpoint: mean survival time, dose: 400.0 mg/kg/injection, schedule: Q01DX001 (ip), vehicle: saline with Tween-80",88 % of control
CN=NN(C)C(=O)NC,T/C,"endpoint: median survival time, dose: 6.25 mg/kg/injection, schedule: Q01DX005 (ip), vehicle: saline",110 % of control
same,T/C,"endpoint: median survival time, dose: 12.5 mg/kg/injection, schedule: Q01DX005 (ip), vehicle: saline",120 % of control
same,T/C,"endpoint: median survival time, dose: 60.0 mg/kg/injection, schedule: Q01DX005 (ip), vehicle: saline",186 % of control
same,T/C,"endpoint: median survival time, dose: 100.0 mg/kg/injection, schedule: Q01DX005 (ip), vehicle: saline",204 % of control
Cc1cccc[n+]1CC[n+]1ccccc1C,T/C,[14],100 % of control
same,T/C,[15],101 % of control
CCN(C(=O)CCl)C(C)(C)C(SSSC(c1ccc(Cl)cc1)C(C)(C)N(CC)C(=O)CCl)c1ccc(Cl)cc1 (stereo unspecified),T/C,"endpoint: mean survival time, dose: 12.5 mg/kg/injection, schedule: Q01DX009 (ip), vehicle: saline",96 % of control
same,T/C,"endpoint: mean survival time, dose: 25.0 mg/kg/injection, schedule: Q01DX009 (ip), vehicle: saline",102 % of control
same,T/C,[16],95 % of control and 106 % of control
same,T/C,[17],100 % of control
CC(=O)OC1CCCC(OC(C)=O)C1OC(C)=O (stereo unspecified),T/C,[18],107 % of control
same,T/C,[19],96 % of control
same,T/C,[20],101 % of control
O=C1CCCC1=P(c1ccccc1)(c1ccccc1)c1ccccc1,T/C,"endpoint: mean survival time, dose: 100.0 mg/kg/injection, schedule: Q04DX003 (ip), vehicle: other",99 % of control
same,T/C,"endpoint: mean survival time, dose: 200.0 mg/kg/injection, schedule: Q04DX003 (ip), vehicle: other",90 % of control
O=S1(=O)CCCN1c1ccccc1,T/C,[14],100 % of control
same,T/C,[15],106 % of control
same,T/C,"endpoint: mean survival time, dose: 400.0 mg/kg/injection, schedule: Q01DX001 (ip), vehicle: saline",103 % of control
Cc1c2ccncc2cc2c1[nH]c1ccccc12,T/C,"endpoint: mean survival time, dose: 0.8 mg/kg/injection, schedule: Q03HX008 (iv), vehicle: saline",97 % of control
same,T/C,"endpoint: mean survival time, dose: 1.6 mg/kg/injection, schedule: Q03HX008 (iv), vehicle: saline",97 % of control
same,T/C,"endpoint: mean survival time, dose: 1.6 mg/kg/injection, schedule: Q06HX004 (iv), vehicle: saline",97 % of control
same,T/C,"endpoint: mean survival time, dose: 3.2 mg/kg/injection, schedule: Q06HX004 (iv), vehicle: saline",93 % of control
same,T/C,"endpoint: mean survival time, dose: 3.21 mg/kg/injection, schedule: Q#A X002 (iv), vehicle: saline",95 % of control
same,T/C,"endpoint: mean survival time, dose: 6.3 mg/kg/injection, schedule: Q06HX004 (iv), vehicle: saline",97 % of control
same,T/C,"endpoint: mean survival time, dose: 6.31 mg/kg/injection, schedule: Q#A X002 (iv), vehicle: saline",101 % of control
same,T/C,"endpoint: mean survival time, dose: 12.5 mg/kg/injection, schedule: Q01DX001 (iv), vehicle: saline",95 % of control
same,T/C,"endpoint: mean survival time, dose: 12.51 mg/kg/injection, schedule: Q#A X002 (iv), vehicle: saline",100 % of control
same,T/C,"endpoint: mean survival time, dose: 25.0 mg/kg/injection, schedule: Q01DX001 (iv), vehicle: saline",98 % of control
same,T/C,"endpoint: mean survival time, dose: 25.1 mg/kg/injection, schedule: Q#A X002 (iv), vehicle: saline",101 % of control
c1ccc2c(c1)-c1nc3ccccc3cc1C2N1CCCCC1 (stereo unspecified),T/C,[17],105 % of control
same,T/C,"endpoint: mean survival time, dose: 200.0 mg/kg/injection, schedule: Q01DX009 (ip), vehicle: saline",103 % of control
same,T/C,"endpoint: mean survival time, dose: 400.0 mg/kg/injection, schedule: Q01DX009 (ip), vehicle: saline",97 % of control
O=C(N/C=C\NC(=O)Nc1cccc(Cl)c1)Nc1cccc(Cl)c1,T/C,[12],90 % of control
same,T/C,[13],90 % of control
same,T/C,"endpoint: mean survival time, dose: 400.0 mg/kg/injection, schedule: Q04DX002 (ip), vehicle: saline with Tween-80",98 % of control
OC1CCCCCCCCC1Cl (stereo unspecified),T/C,[9],88 % of control
same,T/C,[6],94 % of control
same,T/C,[7],93 % of control
same,T/C,[8],96 % of control
CCCNC(=O)Oc1c(C(C)C)ccc(C)c1Cl,T/C,[18],98 % of control
same,T/C,[19],101 % of control
same,T/C,[20],95 % of control
CCN(C(=O)Nc1cc([N+](=O)[O-])ccc1C)c1cc(C)ccc1OC,T/C,[9],88 % of control
same,T/C,[10],94 % of control
same,T/C,[11],94 % of control
CSc1ccc(NC(=O)N(CCCl)N=O)cc1,T/C,"endpoint: mean survival time, dose: 2.3 mg/kg/injection, schedule: Q01DX001 (ip), vehicle: other",121 % of control
same,T/C,"endpoint: mean survival time, dose: 3.5 mg/kg/injection, schedule: Q01DX001 (ip), vehicle: other",122 % of control
O/N=C/C1CCCC[N-]1.O/N=C/C1CCCC[N-]1.O/N=C/C1CCCC[N-]1.[Cu] (stereo unspecified),T/C,"endpoint: median survival time, dose: 0.75 mg/kg/injection, schedule: Q03HX024 (ip), vehicle: saline",95 % of control
same,T/C,"endpoint: median survival time, dose: 1.5 mg/kg/injection, schedule: Q03HX024 (ip), vehicle: saline",95 % of control
same,T/C,"endpoint: median survival time, dose: 6.0 mg/kg/injection, schedule: Q03HX024 (ip), vehicle: saline",104 % of control
same,T/C,"endpoint: median survival time, dose: 8.0 mg/kg/injection, schedule: Q03HX024 (ip), vehicle: saline",179 % of control
CC1(CBr)Oc2ccccc2O1,T/C,"endpoint: mean survival time, dose: 100.0 mg/kg/injection, schedule: Q04DX003 (ip), vehicle: Klucel (hydroxypropylcellulose) (HPC)",97 % of control
same,T/C,"endpoint: mean survival time, dose: 200.0 mg/kg/injection, schedule: Q04DX003 (ip), vehicle: Klucel (hydroxypropylcellulose) (HPC)",88 % of control
same,T/C,"endpoint: mean survival time, dose: 400.0 mg/kg/injection, schedule: Q04DX003 (ip), vehicle: Klucel (hydroxypropylcellulose) (HPC)",94 % of control
CC12CCC(=O)C=C1CCCC2=O (stereo unspecified),T/C,[16],98 % of control
same,T/C,[17],96 % of control
CN(C)N=Nc1c(F)c(F)c(F)c(F)c1F,T/C,"endpoint: mean survival time, dose: 12.5 mg/kg/injection, schedule: Q01DX009 (ip), vehicle: other",98 % of control
same,T/C,"endpoint: mean survival time, dose: 25.0 mg/kg/injection, schedule: Q01DX009 (ip), vehicle: other",102 % of control
same,T/C,[21],106 % of control
same,T/C,"endpoint: mean survival time, dose: 50.0 mg/kg/injection, schedule: Q01DX009 (ip), vehicle: other",104 % of control
same,T/C,"endpoint: mean survival time, dose: 50.0 mg/kg/injection, schedule: Q01DX009 (ip), vehicle: saline with Tween-80",104 % of control
same,T/C,"endpoint: mean survival time, dose: 100.0 mg/kg/injection, schedule: Q01DX009 (ip), vehicle: other",104 % of control
same,T/C,[9],107 % of control
same,T/C,"endpoint: mean survival time, dose: 200.0 mg/kg/injection, schedule: Q01DX009 (ip), vehicle: other",115 % of control
CCCCCCCCCCCCOC(=O)C[n+]1cccc(C(=O)Nc2ccccc2)c1,T/C,[21],95 % of control
same,T/C,[6],102 % of control
